Test results: PubChem BioAssay AID248 (DTP/NCI, 2004)
Several values for one entry are separate records, joined by “and”; a condition that tells them apart may be missing. Equal values may be shown once. Toxic doses and inconclusive results are not listed.

System: L1210 leukemia ip in BDF1 mice, survival T/C
Assay: NCI In Vivo Anticancer Drug Screen. Data for tumor model L1210 Leukemia (intraperitoneal) in B6D2F1 (BDF1) mice
Conditions: endpoint: mean survival time, higher = longer survival
How it was run: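 Antitumor effect is assessed in tumor-bearing animals. Survival in the compound arm is compared with a vehicle-dosed control arm and expressed as their quotient.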

`CCN(CC)CCNc1ccc(C)c2sc3ccccc3c(=O)c12` was tested, and the T/C (dose: 6.25 mg/kg/injection, schedule: Q01DX009 (ip), vehicle: saline) was 117 % of control and 118 % of control, the T/C (dose: 8.08 mg/kg/injection, schedule: Q01DX Z (ip), vehicle: carboxymethylcellulose (CMC)) was 96 % of control and the T/C (dose: 10.0 mg/kg/injection, schedule: Q01DX Z (ip), vehicle: other) was 95 % of control. The T/C (dose: 12.0 mg/kg/injection, schedule: Q01DX006 (iv), vehicle: saline) was 98 % of control, the T/C (dose: 12.0 mg/kg/injection, schedule: Q01DX Z (im), vehicle: saline) was 98 % of control and the T/C (dose: 12.0 mg/kg/injection, schedule: Q01DX Z (ip), vehicle: saline) was 101 % of control. For the same compound, the T/C (dose: 12.0 mg/kg/injection, schedule: Q01DX Z (sc), vehicle: saline) was 98 % of control, the T/C (dose: 12.5 mg/kg/injection, schedule: Q01DX005 (ip), vehicle: Klucel (hydroxypropylcellulose) (HPC)) was 96 % of control and 97 % of control and the T/C (dose: 12.5 mg/kg/injection, schedule: Q01DX005 (ip), vehicle: water) was 101 % of control. For the same compound, the T/C (dose: 13.0 mg/kg/injection, schedule: Q01DX Z (oral), vehicle: carboxymethylcellulose (CMC)) was 122 % of control, the T/C (dose: 16.17 mg/kg/injection, schedule: Q01DX Z (ip), vehicle: carboxymethylcellulose (CMC)) was 104 % of control and the T/C (dose: 18.0 mg/kg/injection, schedule: Q01DX Z (ip), vehicle: carboxymethylcellulose (CMC)) was 98 % of control. For the same compound, the T/C (dose: 18.0 mg/kg/injection, schedule: Q01DX Z (ip), vehicle: methylcellulose (MC)) was 107 % of control, the T/C (dose: 20.0 mg/kg/injection, schedule: Q01DX Z (ip), vehicle: carboxymethylcellulose (CMC)) was 100 % of control and 109 % of control and the T/C (dose: 20.0 mg/kg/injection, schedule: Q01DX Z (oral), vehicle: carboxymethylcellulose (CMC)) was 112 % of control. For the same compound, the T/C (dose: 24.0 mg/kg/injection, schedule: Q01DX Z (im), vehicle: saline) was 103 % of control, the T/C (dose: 24.0 mg/kg/injection, schedule: Q01DX Z (ip), vehicle: saline) was 101 % of control and the T/C (dose: 24.0 mg/kg/injection, schedule: Q01DX Z (sc), vehicle: saline) was 98 % of control. The T/C (dose: 25.0 mg/kg/injection, schedule: Q01DX005 (ip), vehicle: Klucel (hydroxypropylcellulose) (HPC)) was 103 % of control and 105 % of control, the T/C (dose: 25.0 mg/kg/injection, schedule: Q01DX005 (ip), vehicle: water) was 112 % of control and the T/C (dose: 25.0 mg/kg/injection, schedule: Q01DX010 (ip), vehicle: saline) was 103 % of control and 113 % of control. For the same compound, the T/C (dose: 25.0 mg/kg/injection, schedule: Q01DX Z (ip), vehicle: carboxymethylcellulose (CMC)) was 109 % of control, the T/C (dose: 25.0 mg/kg/injection, schedule: Q04DX003 (ip), vehicle: Klucel (hydroxypropylcellulose) (HPC)) was 104 % of control and 110 % of control and the T/C (dose: 25.0 mg/kg/injection, schedule: Q04DX003 (ip), vehicle: saline) was 100 % of control. The T/C (dose: 25.0 mg/kg/injection, schedule: Q04DX003 (ip), vehicle: water) was 101 % of control, the T/C (dose: 25.88 mg/kg/injection, schedule: Q01DX Z (ip), vehicle: carboxymethylcellulose (CMC)) was 98 % of control and the T/C (dose: 27.0 mg/kg/injection, schedule: Q01DX Z (ip), vehicle: carboxymethylcellulose (CMC)) was 108 % of control. For the same compound, the T/C (dose: 27.0 mg/kg/injection, schedule: Q01DX Z (ip), vehicle: methylcellulose (MC)) was 105 % of control, the T/C (dose: 30.0 mg/kg/injection, schedule: Q01DX Z (ip), vehicle: other) was 103 % of control and the T/C (dose: 32.35 mg/kg/injection, schedule: Q01DX Z (ip), vehicle: carboxymethylcellulose (CMC)) was 102 % of control and 103 % of control. The T/C (dose: 39.0 mg/kg/injection, schedule: Q01DX Z (ip), vehicle: methylcellulose (MC)) was 164 % of control, the T/C (dose: 40.0 mg/kg/injection, schedule: Q01DX Z (ip), vehicle: carboxymethylcellulose (CMC)) was 114 % of control and 122 % of control and 123 % of control and the T/C (dose: 40.0 mg/kg/injection, schedule: Q01DX Z (ip), vehicle: methylcellulose (MC)) was 100 % of control. For the same compound, the T/C (dose: 43.13 mg/kg/injection, schedule: Q01DX Z (ip), vehicle: carboxymethylcellulose (CMC)) was 113 % of control, the T/C (dose: 48.0 mg/kg/injection, schedule: Q01DX Z (im), vehicle: saline) was 108 % of control and the T/C (dose: 48.0 mg/kg/injection, schedule: Q01DX Z (sc), vehicle: saline) was 101 % of control. For the same compound, the T/C (dose: 50.0 mg/kg/injection, schedule: Q01DX005 (ip), vehicle: Klucel (hydroxypropylcellulose) (HPC)) was 114 % of control, the T/C (dose: 50.0 mg/kg/injection, schedule: Q01DX005 (ip), vehicle: water) was 121 % of control and the T/C (dose: 50.0 mg/kg/injection, schedule: Q01DX Z (ip), vehicle: carboxymethylcellulose (CMC)) was 121 % of control. For the same compound, the T/C (dose: 50.0 mg/kg/injection, schedule: Q04DX003 (ip), vehicle: Klucel (hydroxypropylcellulose) (HPC)) was 102 % of control and 119 % of control, the T/C (dose: 50.0 mg/kg/injection, schedule: Q04DX003 (ip), vehicle: saline) was 102 % of control and the T/C (dose: 50.0 mg/kg/injection, schedule: Q04DX003 (ip), vehicle: water) was 106 % of control. For the same compound, the T/C (dose: 58.0 mg/kg/injection, schedule: Q01DX Z (ip), vehicle: methylcellulose (MC)) was 222 % of control, the T/C (dose: 60.0 mg/kg/injection, schedule: Q01DX Z (ip), vehicle: methylcellulose (MC)) was 104 % of control and the T/C (dose: 75.0 mg/kg/injection, schedule: Q01DX001 (ip), vehicle: Klucel (hydroxypropylcellulose) (HPC)) was 117 % of control. The T/C (dose: 75.0 mg/kg/injection, schedule: Q01DX001 (ip), vehicle: saline) was 96 % of control and 101 % of control, the T/C (dose: 75.0 mg/kg/injection, schedule: Q01DX001 (ip), vehicle: water) was 108 % of control and the T/C (dose: 90.0 mg/kg/injection, schedule: Q01DX Z (ip), vehicle: methylcellulose (MC)) was 100 % of control. The T/C (dose: 96.0 mg/kg/injection, schedule: Q01DX Z (im), vehicle: carboxymethylcellulose (CMC)) was 111 % of control, the T/C (dose: 96.0 mg/kg/injection, schedule: Q01DX Z (im), vehicle: saline) was 120 % of control and the T/C (dose: 96.0 mg/kg/injection, schedule: Q01DX Z (ip), vehicle: carboxymethylcellulose (CMC)) was 111 % of control. For the same compound, the T/C (dose: 96.0 mg/kg/injection, schedule: Q01DX Z (ip), vehicle: saline) was 165 % of control, the T/C (dose: 96.0 mg/kg/injection, schedule: Q01DX Z (sc), vehicle: saline) was 115 % of control and the T/C (dose: 100.0 mg/kg/injection, schedule: Q01DX001 (ip), vehicle: saline) was 104 % of control. For the same compound, the T/C (dose: 100.0 mg/kg/injection, schedule: Q01DX005 (ip), vehicle: water) was 157 % of control, the T/C (dose: 100.0 mg/kg/injection, schedule: Q01DX010 (ip), vehicle: saline) was 151 % of control and 166 % of control and the T/C (dose: 100.0 mg/kg/injection, schedule: Q04DX003 (ip), vehicle: saline) was 93 % of control and 116 % of control. For the same compound, the T/C (dose: 129.4 mg/kg/injection, schedule: Q01DX Z (ip), vehicle: carboxymethylcellulose (CMC)) was 87 % of control, the T/C (dose: 140.0 mg/kg/injection, schedule: Q01DX Z (sc), vehicle: carboxymethylcellulose (CMC)) was 122 % of control and the T/C (dose: 145.0 mg/kg/injection, schedule: Q01DX001 (ip), vehicle: water) was 116 % of control. For the same compound, the T/C (dose: 150.0 mg/kg/injection, schedule: Q01DX001 (ip), vehicle: Klucel (hydroxypropylcellulose) (HPC)) was 107 % of control, the T/C (dose: 150.0 mg/kg/injection, schedule: Q01DX001 (ip), vehicle: saline) was 94 % of control and 104 % of control and the T/C (dose: 150.0 mg/kg/injection, schedule: Q01DX001 (ip), vehicle: water) was 120 % of control. The T/C (dose: 200.0 mg/kg/injection, schedule: Q01DX001 (ip), vehicle: saline) was 110 % of control, the T/C (dose: 200.0 mg/kg/injection, schedule: Q01DX009 (ip), vehicle: saline) was 105 % of control and 110 % of control and the T/C (dose: 200.0 mg/kg/injection, schedule: Q01DX010 (ip), vehicle: saline) was 93 % of control and 103 % of control. For the same compound, the T/C (dose: 200.0 mg/kg/injection, schedule: Q01DX Z (oral), vehicle: saline) was 104 % of control, the T/C (dose: 200.0 mg/kg/injection, schedule: Q04DX003 (ip), vehicle: Klucel (hydroxypropylcellulose) (HPC)) was 176 % of control and 180 % of control and the T/C (dose: 200.0 mg/kg/injection, schedule: Q04DX003 (ip), vehicle: saline) was 117 % of control. For the same compound, the T/C (dose: 215.0 mg/kg/injection, schedule: Q01DX Z (im), vehicle: carboxymethylcellulose (CMC)) was 122 % of control, the T/C (dose: 215.0 mg/kg/injection, schedule: Q01DX Z (sc), vehicle: carboxymethylcellulose (CMC)) was 111 % of control and the T/C (dose: 217.0 mg/kg/injection, schedule: Q01DX001 (ip), vehicle: water) was 121 % of control. The T/C (dose: 300.0 mg/kg/injection, schedule: Q01DX001 (ip), vehicle: saline) was 105 % of control, the T/C (dose: 300.0 mg/kg/injection, schedule: Q01DX001 (ip), vehicle: water) was 121 % of control and the T/C (dose: 320.0 mg/kg/injection, schedule: Q01DX Z (im), vehicle: carboxymethylcellulose (CMC)) was 100 % of control and 114 % of control. For the same compound, the T/C (dose: 320.0 mg/kg/injection, schedule: Q01DX Z (sc), vehicle: carboxymethylcellulose (CMC)) was 102 % of control, the T/C (dose: 400.0 mg/kg/injection, schedule: Q01DX001 (ip), vehicle: saline) was 188 % of control and the T/C (dose: 480.0 mg/kg/injection, schedule: Q01DX Z (im), vehicle: carboxymethylcellulose (CMC)) was 90 % of control.
